Measurements from PubChem BioAssay (NCI).
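Five compound concentrations were applied to cells in 96-well plates for 48 hours; endpoints were derived by simple linear interpolation of the resulting dose-response curve. TGI is the concentration that stops growth completely.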

What was measured:
Assay in all cases: growth of human tumour cells (NCI), 48 h
SN12C renal = system: SN12C renal
SK-MEL-5 melanoma = system: SK-MEL-5 melanoma
SF-295 CNS = system: SF-295 CNS
NCI-H23 lung = system: NCI-H23 lung
HCT-15 colon = system: HCT-15 colon
UACC-62 melanoma = system: UACC-62 melanoma
SNB-19 CNS = system: SNB-19 CNS
MALME-3M melanoma = system: MALME-3M melanoma
CCRF-CEM leukemia = system: CCRF-CEM leukemia
HOP-62 NSCLC = system: HOP-62 NSCLC
MCF7 breast = system: MCF7 breast
SK-OV-3 ovarian = system: SK-OV-3 ovarian
SW-620 colon = system: SW-620 colon
K-562 leukemia = system: K-562 leukemia
NCI/ADR-RES ovarian = system: NCI/ADR-RES ovarian
A549 NSCLC = system: A549 NSCLC
COLO 205 colon = system: COLO 205 colon
HL-60(TB) leukemia = system: HL-60(TB) leukemia
NCI-H226 lung = system: NCI-H226 lung
786-0 renal = system: 786-0 renal
SF-539 CNS = system: SF-539 CNS
M14 melanoma = system: M14 melanoma
HS 578T breast = system: HS 578T breast
EKVX NSCLC = system: EKVX NSCLC
OVCAR-5 ovarian = system: OVCAR-5 ovarian
TK-10 renal = system: TK-10 renal
DU-145 prostate = system: DU-145 prostate
NCI-H460 lung = system: NCI-H460 lung
UACC-257 melanoma = system: UACC-257 melanoma
OVCAR-8 ovarian = system: OVCAR-8 ovarian
SF-268 CNS = system: SF-268 CNS
MOLT-4 leukemia = system: MOLT-4 leukemia
RXF 393 renal = system: RXF 393 renal
OVCAR-3 ovarian = system: OVCAR-3 ovarian
HOP-92 NSCLC = system: HOP-92 NSCLC
ACHN renal = system: ACHN renal
SK-MEL-2 melanoma = system: SK-MEL-2 melanoma
MDA-MB-231 breast = system: MDA-MB-231 breast
U251 CNS = system: U251 CNS
PC-3 prostate = system: PC-3 prostate
MDA-MB-435 = system: MDA-MB-435
A498 renal = system: A498 renal
OVCAR-4 ovarian = system: OVCAR-4 ovarian
HCT-116 colon = system: HCT-116 colon
RPMI-8226 leukemia = system: RPMI-8226 leukemia
SK-MEL-28 melanoma = system: SK-MEL-28 melanoma
HT29 colon = system: HT29 colon
SR leukemia = system: SR leukemia
HCC-2998 colon = system: HCC-2998 colon
UO-31 renal = system: UO-31 renal
LOX IMVI melanoma = system: LOX IMVI melanoma
KM12 colon = system: KM12 colon
MDA-N = system: MDA-N

Structure (SMILES): Cc1nc2c([nH]c1C)c(O)cc1c3c(nc12)C(=O)CCC3
- TGI (SN12C renal): > 100 µM
- TGI (SK-MEL-5 melanoma): > 100 µM
- TGI (SF-295 CNS): 90.8 µM
- TGI (NCI-H23 lung): > 100 µM
- TGI (HCT-15 colon): > 100 µM
- TGI (UACC-62 melanoma): 52.6 µM
- TGI (SNB-19 CNS): > 100 µM
- TGI (MALME-3M melanoma): > 100 µM
- TGI (CCRF-CEM leukemia): > 100 µM
- TGI (HOP-62 NSCLC): > 100 µM
- TGI (MCF7 breast): 4.35 µM
- TGI (SK-OV-3 ovarian): 38.1 µM
- TGI (SW-620 colon): > 100 µM
- TGI (K-562 leukemia): > 100 µM
- TGI (NCI/ADR-RES ovarian): > 100 µM
- TGI (A549 NSCLC): 14.1 µM
- TGI (COLO 205 colon): 5.99 µM
- TGI (HL-60(TB) leukemia): > 100 µM
- TGI (NCI-H226 lung): > 100 µM
- TGI (786-0 renal): > 100 µM
- TGI (SF-539 CNS): 13.6 µM
- TGI (M14 melanoma): > 100 µM
- TGI (HS 578T breast): 83 µM
- TGI (EKVX NSCLC): > 100 µM
- TGI (OVCAR-5 ovarian): > 100 µM
- TGI (TK-10 renal): 26.3 µM
- TGI (DU-145 prostate): > 100 µM
- TGI (NCI-H460 lung): > 100 µM
- TGI (UACC-257 melanoma): > 100 µM
- TGI (OVCAR-8 ovarian): 8.25 µM
- TGI (SF-268 CNS): 96.2 µM
- TGI (MOLT-4 leukemia): > 100 µM
- TGI (RXF 393 renal): 3.68 µM
- TGI (OVCAR-3 ovarian): 7.31 µM
- TGI (HOP-92 NSCLC): > 100 µM
- TGI (ACHN renal): > 100 µM
- TGI (SK-MEL-2 melanoma): 8.92 µM
- TGI (MDA-MB-231 breast): > 100 µM
- TGI (U251 CNS): 20.9 µM
- TGI (PC-3 prostate): > 100 µM
- TGI (MDA-MB-435): 2.05 µM
- TGI (A498 renal): > 100 µM
- TGI (OVCAR-4 ovarian): 45.4 µM
- TGI (HCT-116 colon): > 100 µM
- TGI (RPMI-8226 leukemia): 7.05 µM
- TGI (SK-MEL-28 melanoma): > 100 µM
- TGI (HT29 colon): 11.7 µM
- TGI (SR leukemia): 8.77 µM
- TGI (HCC-2998 colon): 7.88 µM
- TGI (UO-31 renal): 84.2 µM
- TGI (LOX IMVI melanoma): > 100 µM
- TGI (KM12 colon): > 100 µM
- TGI (MDA-N): 3.1 µM
